Experimental data published in patent US9364479B2, “Use of a receptor-type kinase modulator for treating polycystic kidney disease” (SYMPHONY EVOLUTION, INC., priority 2010, dated 2016).

Key:
ErbB2 = ErbB2 (Homo sapiens, UniProt P04626); assay: Mechanism of action study / Ki determination; assay type: biochemical; set-up: residues Q679-V1255 of human ErbB2, Proqinase; purchased Proqinase
Description: Enzymatic activity was measured by standard methods after dilution of the enzyme-inhibitor complex.

EGFR L858R (pCMV/Lx-1) = EGFR L858R (pCMV/Lx-1) (Homo sapiens, UniProt P00533, L858R); assay: EGFR phosphorylation ELISA in transfected Lx-1 cells
Sequence of EGFR L858R (pCMV/Lx-1) (P00533 25-1210 L858R): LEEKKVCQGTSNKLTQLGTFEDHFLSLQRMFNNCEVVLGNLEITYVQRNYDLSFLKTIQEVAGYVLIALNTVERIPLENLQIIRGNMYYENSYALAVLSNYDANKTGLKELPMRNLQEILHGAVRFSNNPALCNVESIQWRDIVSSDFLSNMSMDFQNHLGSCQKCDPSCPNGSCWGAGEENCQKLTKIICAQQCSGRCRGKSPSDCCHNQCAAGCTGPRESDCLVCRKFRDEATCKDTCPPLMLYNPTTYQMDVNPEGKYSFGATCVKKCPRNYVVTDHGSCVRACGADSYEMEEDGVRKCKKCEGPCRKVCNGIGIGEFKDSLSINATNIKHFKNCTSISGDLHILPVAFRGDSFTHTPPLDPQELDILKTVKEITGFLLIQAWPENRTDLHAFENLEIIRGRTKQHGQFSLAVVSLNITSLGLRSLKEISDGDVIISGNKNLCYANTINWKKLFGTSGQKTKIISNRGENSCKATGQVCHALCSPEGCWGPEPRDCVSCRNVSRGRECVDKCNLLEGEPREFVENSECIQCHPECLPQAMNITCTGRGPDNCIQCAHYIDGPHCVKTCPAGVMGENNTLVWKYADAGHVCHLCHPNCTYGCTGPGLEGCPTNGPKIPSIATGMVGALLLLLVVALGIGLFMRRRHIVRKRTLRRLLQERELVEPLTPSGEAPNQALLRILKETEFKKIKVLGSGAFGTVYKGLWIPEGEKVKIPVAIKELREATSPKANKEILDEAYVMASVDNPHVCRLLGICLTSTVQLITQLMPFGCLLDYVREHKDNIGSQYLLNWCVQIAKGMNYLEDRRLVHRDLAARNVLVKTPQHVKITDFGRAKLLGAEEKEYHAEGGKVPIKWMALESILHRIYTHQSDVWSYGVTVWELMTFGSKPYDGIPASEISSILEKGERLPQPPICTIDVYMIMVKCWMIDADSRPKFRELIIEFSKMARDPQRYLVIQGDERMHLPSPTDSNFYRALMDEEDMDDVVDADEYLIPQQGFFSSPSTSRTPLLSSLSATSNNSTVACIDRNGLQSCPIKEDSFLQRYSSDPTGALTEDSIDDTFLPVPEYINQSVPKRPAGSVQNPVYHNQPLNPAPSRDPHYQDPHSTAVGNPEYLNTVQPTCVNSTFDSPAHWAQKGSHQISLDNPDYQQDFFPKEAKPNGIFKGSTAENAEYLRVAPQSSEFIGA
Description: Lx-1 cells were used because they lack background EGFR activity. A clone corresponding to the longest EGFR isoform (Genbank accession no. NM_005228.3/NP_005219.2 #21-176, Upstate Biotechnology) was used as a template to produce two mutant EGFR genes (coding for L858R and L861Q) by site-directed mutagenesis. The WT and the two sequence-verified mutants were transferred to a COOH-terminal Flag-tagged retroviral cytomegalovirus promoter-driven mammalian expression vector. The two Tet-On expression vectors, EGFR WT (Tet-On) and EGFRvIII (Tet-On), which were COOH-terminally Flag tagged, were generously provided by Dr. Abhijit Guha (University of Toronto, Toronto, Ontario, Canada).
Transient transfections of Lx-1 cells were done using Lipofectamine 2000 (Invitrogen) according to the manufacturer's protocol. For transfections of the WT, L858R, and L861Q constructs, 1 μg plasmid DNA was used for each transfection (each well of a 12-well plate). […]
For the EGFR phosphorylation ELISA, Reacti-Bind streptavidin-coated plates (Pierce) were coated with 2 μg/mL biotin-conjugated anti-Flag antibody (Sigma). […] Horseradish peroxidase activity was determined by reading the plates in a Victor2 plate reader following addition of the ELISA Femto substrate.

in vivo = conditions: for AUC(0-t) / Cmax / half-life: po; for dosing terminated because of toxicity: 2 days
Description: The nonclinical Pharmacokinetics (PK) of XL-647 was studied in mice, rats, dogs, and monkeys. Animals were dosed either once or daily over several days, as described in Table 21 and 22 below. A summary of results can also be found in Tables 21 and 22 below. […] Mean tmax values were approximately 4 to 8 hours, and plasma terminal half-lives ranged from 9.41 to 20.9 hours.

[1] = biological target: T1, Potassium Channel, Ca2+ Act., VS (Homo sapiens, UniProt Q12791); assay: NovaScreen assay; assay type: binding; conditions: read-out: Inhibition, 10 μM XL-647
T1 construct: NovaScreen
T1 sequence (Q12791 whole entry): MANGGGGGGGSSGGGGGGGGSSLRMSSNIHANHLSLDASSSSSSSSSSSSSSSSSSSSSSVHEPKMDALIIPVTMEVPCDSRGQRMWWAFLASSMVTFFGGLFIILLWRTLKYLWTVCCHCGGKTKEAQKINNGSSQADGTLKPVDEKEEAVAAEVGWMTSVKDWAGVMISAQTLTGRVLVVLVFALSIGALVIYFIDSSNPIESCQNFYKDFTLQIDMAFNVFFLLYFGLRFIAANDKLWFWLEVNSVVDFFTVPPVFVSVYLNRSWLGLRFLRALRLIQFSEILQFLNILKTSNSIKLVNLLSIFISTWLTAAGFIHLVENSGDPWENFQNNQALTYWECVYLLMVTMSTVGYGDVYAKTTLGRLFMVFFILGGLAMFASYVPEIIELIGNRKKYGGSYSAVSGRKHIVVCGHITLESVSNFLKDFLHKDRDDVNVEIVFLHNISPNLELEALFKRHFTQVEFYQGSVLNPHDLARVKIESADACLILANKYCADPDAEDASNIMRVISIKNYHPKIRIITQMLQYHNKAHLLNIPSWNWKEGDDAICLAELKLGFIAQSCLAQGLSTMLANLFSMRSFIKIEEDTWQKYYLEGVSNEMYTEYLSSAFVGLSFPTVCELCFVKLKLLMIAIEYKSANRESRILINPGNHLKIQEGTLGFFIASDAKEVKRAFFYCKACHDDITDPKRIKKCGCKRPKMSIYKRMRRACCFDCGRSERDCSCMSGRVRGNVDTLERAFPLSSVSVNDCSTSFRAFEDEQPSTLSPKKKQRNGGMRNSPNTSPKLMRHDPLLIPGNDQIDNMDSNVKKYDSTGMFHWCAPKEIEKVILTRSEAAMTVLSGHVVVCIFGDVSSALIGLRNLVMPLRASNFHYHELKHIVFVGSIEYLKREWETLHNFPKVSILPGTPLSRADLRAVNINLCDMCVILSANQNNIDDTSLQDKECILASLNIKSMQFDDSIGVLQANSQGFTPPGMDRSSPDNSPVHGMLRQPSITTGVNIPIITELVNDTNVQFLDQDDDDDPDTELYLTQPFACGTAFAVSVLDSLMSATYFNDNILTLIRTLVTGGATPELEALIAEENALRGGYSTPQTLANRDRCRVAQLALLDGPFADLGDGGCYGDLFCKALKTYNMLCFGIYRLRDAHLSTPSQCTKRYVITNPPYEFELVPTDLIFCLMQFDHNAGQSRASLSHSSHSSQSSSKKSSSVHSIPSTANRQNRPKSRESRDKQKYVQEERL

Histamine, H3 = biological target: T2, Histamine, H3 (Homo sapiens, UniProt Q9Y5N1); assay: NovaScreen assay; assay type: binding; conditions: read-out: Inhibition, 10 μM XL-647
T2 construct: NovaScreen

Serotonin, Non-selective = assay: NovaScreen assay; assay type: binding
Chk1 = biological target: T3, Chk1 (Homo sapiens, UniProt O14757); assay: Radiometric kinase assay; assay type: biochemical
T3 construct: GST (N); purchased Upstate Biotechnology
Description: (§1) Further screening was performed using the biochemical assay methods of Example 2. Additional description of the components and concentrations are summarized in Table 8, Table 9, and Table 10, below.

Plk1 = biological target: T4, Plk1 (Homo sapiens, UniProt P53350); assay: Radiometric kinase assay; assay type: biochemical
T4 construct: His6
T4 sequence (P53350 whole entry): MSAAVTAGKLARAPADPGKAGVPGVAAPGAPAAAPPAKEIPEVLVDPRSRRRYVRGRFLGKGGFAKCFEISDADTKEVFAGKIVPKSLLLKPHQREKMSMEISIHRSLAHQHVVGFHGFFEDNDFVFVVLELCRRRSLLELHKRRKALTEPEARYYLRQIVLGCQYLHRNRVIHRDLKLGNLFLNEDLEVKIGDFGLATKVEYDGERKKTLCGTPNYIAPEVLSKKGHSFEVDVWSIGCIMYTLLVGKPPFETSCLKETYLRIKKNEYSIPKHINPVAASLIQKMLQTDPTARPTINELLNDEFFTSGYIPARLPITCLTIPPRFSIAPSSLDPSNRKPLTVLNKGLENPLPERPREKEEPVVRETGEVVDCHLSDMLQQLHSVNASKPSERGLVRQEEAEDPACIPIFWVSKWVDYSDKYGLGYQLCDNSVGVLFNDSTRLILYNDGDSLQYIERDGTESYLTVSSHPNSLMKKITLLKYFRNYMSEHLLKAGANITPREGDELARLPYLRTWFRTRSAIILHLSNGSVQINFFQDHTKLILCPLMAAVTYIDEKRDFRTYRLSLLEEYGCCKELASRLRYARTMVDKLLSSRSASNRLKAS
Description: as §1

PKC-ε = biological target: T5, PKC-ε (Homo sapiens, UniProt Q02156); assay: Radiometric kinase assay; assay type: biochemical
T5 construct: purchased PanVera
T5 sequence (Q02156 whole entry): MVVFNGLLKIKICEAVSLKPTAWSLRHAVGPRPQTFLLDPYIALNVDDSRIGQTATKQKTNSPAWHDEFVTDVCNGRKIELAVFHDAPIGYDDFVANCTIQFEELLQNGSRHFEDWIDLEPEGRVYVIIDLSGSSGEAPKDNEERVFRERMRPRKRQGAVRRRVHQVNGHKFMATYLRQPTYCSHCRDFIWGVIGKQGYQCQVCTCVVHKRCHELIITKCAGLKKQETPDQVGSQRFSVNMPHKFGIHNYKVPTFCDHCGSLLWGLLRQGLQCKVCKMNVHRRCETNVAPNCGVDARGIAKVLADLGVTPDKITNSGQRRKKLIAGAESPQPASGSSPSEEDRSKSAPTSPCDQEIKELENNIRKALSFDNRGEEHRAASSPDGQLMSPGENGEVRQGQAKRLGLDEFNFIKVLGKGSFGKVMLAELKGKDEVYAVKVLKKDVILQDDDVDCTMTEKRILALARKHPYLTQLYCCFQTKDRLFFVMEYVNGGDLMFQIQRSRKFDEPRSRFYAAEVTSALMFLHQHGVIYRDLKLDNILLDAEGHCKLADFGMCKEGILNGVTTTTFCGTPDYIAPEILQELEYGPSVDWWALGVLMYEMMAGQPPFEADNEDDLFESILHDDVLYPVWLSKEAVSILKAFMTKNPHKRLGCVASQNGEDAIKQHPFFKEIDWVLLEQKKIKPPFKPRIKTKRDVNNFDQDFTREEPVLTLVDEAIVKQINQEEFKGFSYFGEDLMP
Description: as §1

Bradykinin, BK2 = biological target: T6, Bradykinin, BK2 (Homo sapiens, UniProt P30411); assay: NovaScreen assay; assay type: binding; conditions: read-out: Inhibition, 10 μM XL-647
T6 construct: NovaScreen
T6 sequence (P30411 whole entry): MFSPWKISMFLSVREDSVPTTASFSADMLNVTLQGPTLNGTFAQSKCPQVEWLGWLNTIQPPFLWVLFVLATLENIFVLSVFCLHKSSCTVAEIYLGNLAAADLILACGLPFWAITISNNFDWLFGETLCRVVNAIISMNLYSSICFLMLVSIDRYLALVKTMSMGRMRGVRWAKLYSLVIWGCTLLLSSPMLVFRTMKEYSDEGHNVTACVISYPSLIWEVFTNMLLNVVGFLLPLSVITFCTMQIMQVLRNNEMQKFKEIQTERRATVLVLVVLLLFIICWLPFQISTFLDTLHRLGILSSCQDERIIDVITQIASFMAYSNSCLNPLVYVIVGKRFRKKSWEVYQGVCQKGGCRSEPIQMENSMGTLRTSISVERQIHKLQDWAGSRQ

EphB4 = biological target: T7, EphB4 (Homo sapiens, UniProt P54760); assay: Mechanism of action study / Ki determination; assay type: biochemical
T7 construct: residues E605-E890 of human EphB4 containing a six histidine NH2-terminal tag; His6 (N); made in house; host or cells: baculovirus expression system
T7 sequence (P54760 605-890): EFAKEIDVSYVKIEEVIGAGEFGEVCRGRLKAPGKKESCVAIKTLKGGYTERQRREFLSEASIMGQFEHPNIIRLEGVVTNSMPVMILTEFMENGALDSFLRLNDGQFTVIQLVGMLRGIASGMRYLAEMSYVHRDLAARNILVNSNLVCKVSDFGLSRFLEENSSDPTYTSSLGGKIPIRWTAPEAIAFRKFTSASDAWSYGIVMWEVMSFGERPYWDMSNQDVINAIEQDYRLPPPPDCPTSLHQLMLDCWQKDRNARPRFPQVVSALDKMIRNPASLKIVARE
Description: Enzymatic activity was measured by standard methods after dilution of the enzyme-inhibitor complex. Activity was compared to a DMSO control treated under identical conditions.

[2] = tested on: subjects with relapsed or recurrent NSCLC; assay: Clinical Study XL-647-203 (Phase 2, relapsed or recurrent NSCLC); assay type: in vivo, human; conditions: n=41
Text: Study XL-647-203: Subjects (n=41) with relapsed or recurrent NSCLC (Stage IIIB or IV) with documented progressive disease after benefit from single agent treatment with erlotinib or gefitinib or with a known EGFR T790M mutation were enrolled.

Sequence of ErbB2 (P04626 679-1255): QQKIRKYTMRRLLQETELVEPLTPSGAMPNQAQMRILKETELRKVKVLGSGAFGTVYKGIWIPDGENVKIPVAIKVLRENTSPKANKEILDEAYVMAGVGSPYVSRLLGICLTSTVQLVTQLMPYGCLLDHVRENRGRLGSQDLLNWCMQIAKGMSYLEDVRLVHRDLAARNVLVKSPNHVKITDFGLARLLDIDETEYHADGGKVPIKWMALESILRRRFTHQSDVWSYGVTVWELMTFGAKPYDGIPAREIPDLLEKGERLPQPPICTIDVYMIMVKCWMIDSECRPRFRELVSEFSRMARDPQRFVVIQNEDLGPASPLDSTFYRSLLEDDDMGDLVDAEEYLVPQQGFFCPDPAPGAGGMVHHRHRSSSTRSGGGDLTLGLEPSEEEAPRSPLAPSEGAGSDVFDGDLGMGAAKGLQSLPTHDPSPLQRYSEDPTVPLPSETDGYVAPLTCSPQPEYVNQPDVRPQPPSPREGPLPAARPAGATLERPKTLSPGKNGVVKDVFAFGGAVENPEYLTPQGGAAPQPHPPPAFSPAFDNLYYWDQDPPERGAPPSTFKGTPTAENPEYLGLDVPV

COc1cc2c(Nc3ccc(Cl)c(Cl)c3F)ncnc2cc1OC[C@@H]1C[C@@H]2CN(C)C[C@@H]2C1 [XL-647, N-(3,4-dichloro-2-fluorophenyl)-7-({[(3aR,5r,6aS)-2-methyloctahydrocyclopenta[c]pyrrol-5-yl]methyl}oxy)-6-(methyloxy)quinazolin-4-amine]
ATP-Competitive (ErbB2): Yes | Ki (ErbB2): 3 nM | Reversible (ErbB2): Yes | IC50 (EGFR L858R (pCMV/Lx-1)): 5 nM | AUC(0-t) (in vivo; female, dog, 100 mg/kg): 21200 ng·h/mL | Cmax (in vivo; female, dog, 100 mg/kg): 1100 ng/mL | half-life (in vivo; female, dog, 100 mg/kg): 14.2 h | AUC(0-t) (in vivo; female, dog, 300 mg/kg): 17100 ng·h/mL | Cmax (in vivo; female, dog, 300 mg/kg): 1610 ng/mL | half-life (in vivo; female, dog, 300 mg/kg): 12.1 h | AUC(0-t) (in vivo; female, dog, 1000 mg/kg): 34200 ng·h/mL | Cmax (in vivo; female, dog, 1000 mg/kg): 5090 ng/mL | half-life (in vivo; female, dog, 1000 mg/kg): 16.1 h | AUC(0-t) (in vivo; female, monkey, 2 mg/kg): 450 ng·h/mL | Cmax (in vivo; female, monkey, 2 mg/kg): 38 ng/mL | AUC(0-t) (in vivo; female, monkey, 6 mg/kg): 1690 ng·h/mL | Cmax (in vivo; female, monkey, 6 mg/kg): 116 ng/mL | AUC(0-t) (in vivo; female, monkey, 10 mg/kg): 4270 ng·h/mL | Cmax (in vivo; female, monkey, 10 mg/kg): 216 ng/mL | half-life (in vivo; female, monkey, 10 mg/kg): 14.9 h | AUC(0-t) (in vivo; female, monkey, 20 mg/kg): 3910 ng·h/mL | Cmax (in vivo; female, monkey, 20 mg/kg): 202 ng/mL | half-life (in vivo; female, monkey, 50 mg/kg): 14.8 h | AUC(0-t) (in vivo; female, monkey, 100 mg/kg): 28000 ng·h/mL | Cmax (in vivo; female, monkey, 100 mg/kg): 2160 ng/mL | half-life (in vivo; female, monkey, 100 mg/kg): 11.6 h | AUC(0-t) (in vivo; female, monkey, 150 mg/kg): 7030 ng·h/mL | Cmax (in vivo; female, monkey, 150 mg/kg): 379 ng/mL | half-life (in vivo; female, monkey, 150 mg/kg): 20.4 h | AUC(0-t) (in vivo; male, dog, 100 mg/kg): 8970 ng·h/mL | Cmax (in vivo; male, dog, 100 mg/kg): 407 ng/mL | half-life (in vivo; male, dog, 100 mg/kg): 10.4 h | AUC(0-t) (in vivo; male, dog, 300 mg/kg): 7790 ng·h/mL | Cmax (in vivo; male, dog, 300 mg/kg): 936 ng/mL | half-life (in vivo; male, dog, 300 mg/kg): 12.7 h | AUC(0-t) (in vivo; male, dog, 1000 mg/kg): 27300 ng·h/mL | Cmax (in vivo; male, dog, 1000 mg/kg): 3770 ng/mL | half-life (in vivo; male, dog, 1000 mg/kg): 13.2 h | AUC(0-t) (in vivo; male, monkey, 2 mg/kg): 488 ng·h/mL | Cmax (in vivo; male, monkey, 2 mg/kg): 28.4 ng/mL | AUC(0-t) (in vivo; male, monkey, 6 mg/kg): 1860 ng·h/mL | Cmax (in vivo; male, monkey, 6 mg/kg): 106 ng/mL | AUC(0-t) (in vivo; male, monkey, 10 mg/kg): 3630 ng·h/mL | Cmax (in vivo; male, monkey, 10 mg/kg): 230 ng/mL | half-life (in vivo; male, monkey, 10 mg/kg): 14.7 h | AUC(0-t) (in vivo; male, monkey, 20 mg/kg): 3900 ng·h/mL | Cmax (in vivo; male, monkey, 20 mg/kg): 194 ng/mL | half-life (in vivo; male, monkey, 50 mg/kg): 20.5 h | AUC(0-t) (in vivo; male, monkey, 100 mg/kg): 19600 ng·h/mL | Cmax (in vivo; male, monkey, 100 mg/kg): 1220 ng/mL | half-life (in vivo; male, monkey, 100 mg/kg): 20.7 h | AUC(0-t) (in vivo; male, monkey, 150 mg/kg): 14500 ng·h/mL | Cmax (in vivo; male, monkey, 150 mg/kg): 737 ng/mL | half-life (in vivo; male, monkey, 150 mg/kg): 19.8 h | dosing terminated because of toxicity observed on Days 6 and 7 (in vivo; monkey, 20 mg/kg): then terminated because | dosing terminated because of toxicity (in vivo; monkey, 50 mg/kg): bid × 2, then terminated | dosing terminated because of toxicity (in vivo; monkey, 100 mg/kg): qd × 2, then terminated | dosing terminated because of toxicity (in vivo; monkey, 300 mg/kg): qd × 2, then terminated | AUC(0-t) (in vivo; rat, 1 mg/kg): 198 ng·h/mL | Cmax (in vivo; rat, 1 mg/kg): 12.7 ng/mL | half-life (in vivo; rat, 1 mg/kg): 14.4 h | AUC(0-t) (in vivo; rat, 3 mg/kg): 776 ng·h/mL | Cmax (in vivo; rat, 3 mg/kg): 50.4 ng/mL | half-life (in vivo; rat, 3 mg/kg): 20.4 h | AUC(0-t) (in vivo; rat, 30 mg/kg): 5740 ng·h/mL | Cmax (in vivo; rat, 30 mg/kg): 319 ng/mL | half-life (in vivo; rat, 30 mg/kg): 20.4 h | AUC(0-t) (in vivo; rat, 100 mg/kg): 18300 ng·h/mL | Cmax (in vivo; rat, 100 mg/kg): 909 ng/mL | AUC(0-t) (in vivo; rat, 200 mg/kg): 29500 ng·h/mL | Cmax (in vivo; rat, 200 mg/kg): 1000 ng/mL | AUC(0-t) (in vivo; rat, 600 mg/kg): 41200 ng·h/mL | Cmax (in vivo; rat, 600 mg/kg): 1330 ng/mL | AUC(0-t) (in vivo; rat, 2000 mg/kg): 53000 ng·h/mL | Cmax (in vivo; rat, 2000 mg/kg): 1690 ng/mL | inhibition at 10 µM [1]: 22.7% | inhibition at 10 µM (Histamine, H3): 38.6% | Inhibition, 10 μM XL-647 (Serotonin, Non-selective): 24.52% | IC50 (Chk1): > 10000 nM | IC50 (Plk1): > 1000 nM | IC50 (PKC-ε): > 10000 nM | inhibition at 10 µM (Bradykinin, BK2): 48.8% | ATP-Competitive (EphB4): Yes | Ki (EphB4): 1 nM | Reversible (EphB4): Yes | subjects with PR [2]: one | subjects with SD as best response [2]: 19 subjects
